This is an account of results in patent publication US20130184290A1, “SELF-EMULSIFYING FORMULATIONS AND METHODS OF USE THEREOF” (CAPSUGEL, Inc., priority 2011, published 2013).

Data set [1] in a line: Physical stability, formulations having one carrier. It is filed as physicochemical.
The nature of data set [2]: Previously determined hygroscopicity of compound 1. It is filed as physicochemical. The note with it: free base; at 70% relative humidity (RH). From the text:
Compound 1 has the following previously determined characteristics:
(vi) hygroscopicity (for free base): 0.09% at 70% relative humidity (RH);

The next data set has as its system Caco-2 cells. As to the kind of experiment: Apparent intestinal permeability, Caco-2 cell model. The format is in vitro ADME. Particulars: for Papp R3: replicate 3. From the text:
(§1) Absorption of particular drugs may be limited by biological factors, such as reduced cellular permeability in the intestine. Many cellular mechanisms can influence permeability, such as reduced passive paracellular and transcellular transport or increased active export by the efflux transporter protein P-glycoprotein. Thus, the use of self-emulsifying carriers may not be beneficial for drugs having limited cellular permeability, where methods to increase the solubilization of a drug may not increase its permeability in the gastrointestinal tract. Experiments were conducted to assess the apparent intestinal permeability of compound 1 using a Caco-2 cell model.
(§2) Briefly, Caco-2 cells were used as an in vitro model for predicting absorption through the intestinal epithelium. Confluent monolayers of Caco-2 cells were grown on collagen-coated, microporous, polycarbonate membranes (12-well Costar Transwell® plates) that are placed between two chambers. The apical side of the monolayer was exposed to the buffer solution in a first chamber, but the basolateral side of the monolayer adhered to microporous membranes fluidically connected to a second chamber. The dosing solution was added to the first chamber for measurements in the apical-to-basolateral direction (A-to-B) and to the second chamber for measurements in the basolateral-to-apical direction (B-to-A). […] The permeability assay buffer was Hanks Balanced Salt Solution containing 10 mM HEPES and 15 mM glucose at a pH of 7.4. The buffer in the receiver chamber also contained 1% bovine serum albumin. The dosing solution concentration was 1 μM of compound 1 in the assay buffer. All donor chambers were first pre-incubated for five minutes with dosing solution to attempt to saturate any non-specific binding sites on the device with test compound. After five minutes, the solution was removed and replaced with fresh dosing solution, and time was recorded as 0. Cell monolayers were dosed on the apical side/first chamber (for A-to-B measurements) or basolateral side/second chamber (for B-to-A measurements) and incubated at 37° C. with 5% CO2 in a humidified incubator. At 30 and 60 minutes, aliquots were taken from the receiver chambers and replaced with fresh assay buffer. Samples were taken from the donor chamber at 0 and 60 minutes. Each experiment was performed in triplicate.
(§3) The apparent permeability (Papp), percent recovery, and efflux ratio were calculated as follows: […]
(§4) is the slope of the cumulative concentration in the receiver chamber as a function of time; V, [cm^3] is the volume of the receiver chamber; Vd [cm^3] is the volume of the donor chamber; A [cm^2] is the area of the cell monolayer, which is estimated to be about 1.13 cm^2 for the 12-well Costar Transwell® plates; C0[μM] is the measured concentration in the donor chamber at t=0 hours; CN [μM] is the nominal concentration of the dosing solution; Cr,final [μM] is the cumulative concentration in the receiver chamber at the end of the incubation period; and Cd,final [μM] is the cumulative concentration in the donor chamber at the end of the incubation period.
(§5) Thus, absorption of compound 1 in humans is not expected to be permeability limited.
For orientation: Passage across Caco-2 layers is used to estimate intestinal permeability.

Assay in data set [3]: as above
The format is in vitro ADME. The note with it: human, Caco-2, pH 7.4.
Text: as §1, §2, §3, §4, §5

A short description of data set [4]: Tolerability of compound 1 doses. Particulars: doses of up to 1,600 mg. It is filed as in vivo. From the text: Yet, compound 1 is also known to have decreased oral bioavailability in the fasted state, as compared to the fed state. Accordingly, the invention provides formulations to increase the oral bioavailability or to reduce patient-to-patient variability in pharmacokinetic behavior of compound 1, compound 2, or a salt thereof. These formulations include use of a self-emulsifying carrier system to provide stable emulsions capable of dissolving therapeutically effective amounts of compound 1, compound 2, or a salt thereof.

Data set [5] is described as follows: Fed-fasted pharmacokinetics of compound 1 HCl salt. It is filed as in vivo. The note with it: for half-life: human, in vivo, po, read-out: t1/2 for absorption. From the text: The fed-fasted pharmacokinetic data were collected using a “normal fat” meal consisting of toast with 1 pat of butter, a banana, 2% milk, apple juice, and Honey Nut Cheerios®, where the meal has about 501 calories with 99 calories from fat, 346 calories from carbohydrates, and 56 calories from protein; and using a “high fat” meal consisting of 2 eggs fried in butter, 2 strips of bacon, 2 slices of toast with butter, 4 ounces of hash brown potatoes and 8 ounces of whole milk, where the meal has about 1,000 calories with 500-600 calories from fat, 250 calories from carbohydrates, and 150 calories, from protein.

Data set [6] is described as follows: Previously determined solubility of compound 1. It is filed as physicochemical. From the text: Compound 1 has the following previously determined characteristics: […]

As a reminder, the Papp A→B is the apparent permeability from the apical to the basolateral side of a cell layer. In general, Tmax refers to the time at which the peak concentration occurs.

Read-outs that look alike come from different tables or passages of the source. Bounds are passed on as bounds.

As for Caprylic/capric glycerides, in data set [1], the “Physical Stability, one month” value was greater than 1 month; the “Physical Stability, one month (cells printed in weeks)” value was greater than 1 week; the “Physical Stability, one week” value was greater than 1 week.
For the compound PEG 8 caprylic/capric glycerides, in data set [1], the “Physical Stability, one month” value is given as greater than 1 month and the “Physical Stability, one week” value is greater than 1 week.
The compound `O=C(CC(c1ccccc1)c1ccccc1)N1CCN(C(c2ccccc2)c2ccccc2)CC1` [Compound 1, 1-(4-benzhydrylpiperazin-1-yl)-3,3-diphenylpropan-1-one] had a hygroscopicity in data set [2] of 0.09%. Further, the “Papp R3” value in the data set on Caco-2 cells (A-to-B) is 6.78 10^−6 cm/s; with Caco-2 cells (B-to-A), 4.45 10^−6 cm/s. Moreover, the permeability classification result in the data set with Caco-2 cells (based on Papp(A-to-B)) was “high permeability coefficient”. Moreover, the “efflux of compound 1” value in the data set with Caco-2 cells (based on efflux ratio) is on record as “not considered significant”. In addition, the Papp A→B at 60 min, 1 μM in data set [3] (A-to-B, average) is greater than 1 ×10⁻⁶ cm/s. Besides, the efflux ratio at 60 min, 1 μM in data set [3] (read-out: Efflux Ratio (Papp (B-to-A)/Papp (A-to-B))) was less than 3. Moreover, in data set [4], the adverse effects entry is on record as “no adverse effects”. The Tmax is 4 to 5 h in data set [5] (fed state with high fat meal) and 2 to 5 h in data set [5] (fed state with normal fat meal). For the same compound, the half-life fell in the range of 0.05 to 0.17 h in data set [5] (fasted state), 0.8 to 2.8 h in data set [5] (fed state with high fat meal) and 0.5 to 1.6 h in data set [5] (fed state with normal fat meal). The “solubility in propylene glycol, ethanol, and tetrahydrofuran” value in data set [6] is “soluble”. Besides, in data set [6], the “solubility in water” value is reported as “slightly soluble”.
